Several values for one entry are separate records, joined by “and”; a condition that tells them apart may be missing. Equal values may be shown once. Entries after “also recorded” stand apart in the source; their conditions may differ.
Columns and labels:
[1] = system: tumor positive surgical margins; assay: Fluorescence detection of tumor positive surgical margins versus final histopathology; type: in vivo, human; design: key to Histology vs. Fluorescence Correlation: TP = true positive; TN = true negative; FP = false positive; details: for Histology vs. Fluorescence Correlation / Surgical Margin by Fluorescence: per patient
Text: Tumor specimens were processed for histology according to the standard pathology practice used in clinical cancer care. Diagnosis on margins, selected histological features necessary for clinical decision making were provided. Fluorescence images were collected from the tumor and lymph node specimens and study-related biopsies. Margin width and number of positive margins were noted and correlated to the location of fluorescence in the margins. From this, the correlation between Compound 1 fluorescence and histopathology were calculated.
In a total of 24 patients (HNSCC:13; BC:11), 9 patients (HNSCC:6; BC:3) had histologically confirmed tumor positive surgical margins that were undetected during SOC surgery. Fluorescence guided margin assessment was performed on a per-patient basis. Compound 1 imaging visualized all of these surgical margin patients yielding 100% sensitivity. […] There were 5 of 15 false positives (specificity of 67%), in which fluorescence detected tissue was not confirmed to be tumor by histopathological assessment. 5 of 14 (36%) patients had fluorescent tissues that were negative for tumor (PPV: 64%).
In this Phase 1 study, the intraoperative and postoperative imaging data was used for a preliminary analysis of the diagnostic performance of Compound 1. Performance parameters such as MFI, CNR, and TBR were calculated in vivo and in tissue slices to characterize the ability of Compound 1 to delineate tumor tissue from background. Sensitivity and specificity for detecting tumor tissue from the adjacent normal tissue was evaluated using tissue specimen fluorescence and presented as a ROC curve. The sensitivity, specificity, and PPV of Compound 1 fluorescence in detecting pathology confirmed tumor positive margins were obtained at the patient level.

[2] = Safety (adverse effects) in dog-patients; type: in vivo; details: 7 dogs; 0.5-2.0 mg/kg; injection through discharge
Procedure: Materials and methods: After evaluation and recruitment for the study, dog-patients underwent (A) pre-operation analysis to identify possible types of lesion, and (B) Compound 1 tracer was administrated at 0.5 to 2.0 mg/kg, 18-78 hours prior to surgery. During the surgery (C) intra-operative imaging was performed using a Hamamatsu PDE or custom NIR camera before and after tumor removal (or after limb amputations). Resected tissues were (D) imaged with a LI-COR Pearl Imaging station and tumor-to-normal-tissue ratios were calculated accordingly. The resected tissues were then (E) preserved for histopathology validation. Safety was assessed separately in terms of adverse effects through physical examinations, laboratory tests and the recording of adverse events from infusion through discharge from hospital.
Results: A summary of the data from spayed or neutered dog patients that were recruited for the study is shown below (Table 16). Results from a total of seven dogs of different breeds, aged 4-12 years, body weights ranging from 20.9-59.5 kg, and with a range of tumors ware presented, including instances where more than one tumor was present. Doses studied thus far ranged from 0.5-2.0 mg/kg. […] Both acute and chronic adverse effects were monitored from the time of injection through discharge of the animals from the hospital and follow-up appointments (to remove sutures) and noted.

[3] = 24 patients (HNSCC:13; BC:11), per-patient

## PEO90-140-b-P(DBA60-150-r-ICG0-3-r-AMA0-3) [Compound 1]
[1]; 0.1 mg/kg, HNSCC
  Histology vs. Fluorescence Correlation: TP (2×) and TN
  Surgical Margin by Fluorescence: Positive; also recorded: Negative
[1]; 0.3 mg/kg, BC
  Histology vs. Fluorescence Correlation: TP and TN (2×)
  Surgical Margin by Fluorescence: Positive; also recorded: Negative
[1]; 0.5 mg/kg, BC
  Histology vs. Fluorescence Correlation: TN
  Surgical Margin by Fluorescence: Negative
[1]; 0.5 mg/kg, HNSCC
  Histology vs. Fluorescence Correlation: TN and TP
  Surgical Margin by Fluorescence: Negative; also recorded: Positive
[1]; 0.8 mg/kg, BC
  Histology vs. Fluorescence Correlation: TN and TP
  Surgical Margin by Fluorescence: Negative; also recorded: Positive
[1]; 0.8 mg/kg, HNSCC
  Histology vs. Fluorescence Correlation: FP
  Surgical Margin by Fluorescence: Positive
[1]; 1.2 mg/kg, BC
  Histology vs. Fluorescence Correlation: TN (2×) and FP (2×) and TP
  Surgical Margin by Fluorescence: Negative; also recorded: Positive
[1]; 1.2 mg/kg, CRC
  Histology vs. Fluorescence Correlation: TN
  Surgical Margin by Fluorescence: Negative
[1]; 1.2 mg/kg, EC
  Histology vs. Fluorescence Correlation: TN
[1]; 1.2 mg/kg, HNSCC
  Histology vs. Fluorescence Correlation: TP (3×) and FP (2×) and TN (2×)
  Surgical Margin by Fluorescence: Positive; also recorded: Negative
[1]; 2 of 3 EC and 1 of 3 CRC patients
  Fluorescence in patients with histologically negative margin: negative
[1]; [3]
  PPV for surgical margin patients: 64%
  Sensitivity for tumor positive surgical margin patients: 100%
  Specificity for surgical margin patients: 67%
[1]; BC
  Patients with false positive fluorescence margins: 2
  Sensitivity for positive margin patients: 100%
  Specificity for positive margin patients: 75%
[1]; HNSCC
  Patients with false positive fluorescence margins: 3
  Sensitivity for positive margin patients: 100%
  Specificity for positive margin patients: 57%
[1]; HNSCC and BC
  False negatives in surgical margin detection: no false negatives
[1]; HNSCC and BC, per-patient
  False positives (fluorescent tissue not confirmed tumor by histopathology): 5 of 15
[1]; HNSCC:6, BC:3
  Histologically proven tumor positive surgical margins detected: 9 out of 9 and 9
[2]
  Adverse effects: no adverse effects
